Results from patent publication US9604989B2, “Imidazopyridazines as Akt kinase inhibitors” (Bayer Intellectual Property GmbH, priority 2011, dated 2017).
pIC50: −log10 of the molar value.

What was measured:
phospho-AKT at S473 = assay: Cellular p-AKT1/2/3-S473 assay in KPL-4 cells; format: cell-based; settings: Homo sapiens, KPL4; KPL-4 breast tumour cell line, compound treatment 2 hours; read-out: pAKT-S473 median IC50
[1] = target: His-tagged human recombinant kinase full-length Akt1 (Homo sapiens (Human), UniProt P31749); assay: Akt1 kinase assay (Akt1 TR-FRET assay); format: biochemical; settings: 10 μM ATP, 60 min at 22° C., read-out: Akt1 median IC50
Chain of His-tagged human recombinant kinase full-length Akt1 (P31749 whole entry): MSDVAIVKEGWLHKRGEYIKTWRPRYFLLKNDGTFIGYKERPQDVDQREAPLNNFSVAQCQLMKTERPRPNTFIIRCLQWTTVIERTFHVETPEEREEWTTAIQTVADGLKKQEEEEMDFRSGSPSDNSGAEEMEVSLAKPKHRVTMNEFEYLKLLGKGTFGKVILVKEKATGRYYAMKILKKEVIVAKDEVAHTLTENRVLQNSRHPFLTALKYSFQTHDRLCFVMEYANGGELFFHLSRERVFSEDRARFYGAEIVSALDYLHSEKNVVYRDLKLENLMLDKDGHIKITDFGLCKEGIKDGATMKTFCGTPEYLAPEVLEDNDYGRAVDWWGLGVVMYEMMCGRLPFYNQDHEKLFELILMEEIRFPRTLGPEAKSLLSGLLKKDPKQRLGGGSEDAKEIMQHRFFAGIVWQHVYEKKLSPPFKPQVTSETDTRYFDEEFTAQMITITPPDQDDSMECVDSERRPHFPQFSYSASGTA
Source text: Biological Assay 1.0: Akt1 Kinase Assay
Akt1 inhibitory activity of compounds of the present invention was quantified employing the Akt1 TR-FRET assay as described in the following paragraphs.
His-tagged human recombinant kinase full-length Akt1 expressed in insect cells was purchased form Invitrogen (part number PV 3599). As substrate for the kinase reaction the biotinylated peptide biotin-Ahx-[sequence] (C-terminus in amide form) was used which can be purchased e.g. from the company Biosynthan GmbH (Berlin-Buch, Germany).
For the assay 50 nl of a 100 fold concentrated solution of the test compound in DMSO was pipetted into a black low volume 384 well microtiter plate (Greiner Bio-One, Frickenhausen, Germany), 2 μl of a solution of Akt1 in assay buffer [50 mM TRIS/HCl pH 7.5, 5 mM MgCl2, 1 mM dithiothreitol, 0.02% (v/v) Triton X-100 (Sigma)] were added and the mixture was incubated for 15 min at 22° C. to allow pre-binding of the test compounds to the enzyme before the start of the kinase reaction. Then the kinase reaction was started by the addition of 3 μl of a solution of adenosine-tri-phosphate (ATP, 16.7 μM=>final conc. in the 5 μl assay volume is 10 μM) and substrate (1.67 μM=>final conc. in the 5 μl assay volume is 1 μM) in assay buffer and the resulting mixture was incubated for a reaction time of 60 min at 22° C. The concentration of Akt1 in the assay was adjusted depending of the activity of the enzyme lot and was chosen appropriate to have the assay in the linear range, typical enzyme concentrations were in the range of about 0.05 ng/μl (final conc. in the 5 μl assay volume). The reaction was stopped by the addition of 5 μl of a solution of HTRF detection reagents (200 nM streptavidine-XL665 [Cisbio] and 1.5 nM anti-phosho-Serine antibody [Millipore, cat. #35-001] and 0.75 nM LANCE Eu-W 1024 labeled anti-mouse IgG antibody [Perkin Elmer]) in an aqueous EDTA-solution (100 mM EDTA, 0.1% (w/v) bovine serum albumin in 50 mM HEPES/NaOH pH 7.5). The resulting mixture was incubated 1 h at 22° C. to allow the binding of the biotinylated phosphorylated peptide to the streptavidine-XL665 and the antibodies. Subsequently the amount of phosphorylated substrate was evaluated by measurement of the resonance energy transfer from the anti-mouse-IgG-Eu-Chelate to the streptavidine-XL665. Therefore, the fluorescence emissions at 620 nm and 665 nm after excitation at 350 nm was measured in a HTRF reader, e.g. a Rubystar (BMG Labtechnologies, Offenburg, Germany) or a Viewlux (Perkin-Elmer). The ratio of the emissions at 665 nm and at 622 nm was taken as the measure for the amount of phosphorylated substrate.

[2] = target: His-tagged human recombinant kinase full-length Akt2 (Homo sapiens (Human), UniProt P31751); assay: Akt2 kinase assay (Akt2 TR-FRET assay); format: biochemical; settings: 10 μM ATP, 60 min at 22° C., read-out: Akt2 median IC50
Chain of His-tagged human recombinant kinase full-length Akt2 (P31751 whole entry): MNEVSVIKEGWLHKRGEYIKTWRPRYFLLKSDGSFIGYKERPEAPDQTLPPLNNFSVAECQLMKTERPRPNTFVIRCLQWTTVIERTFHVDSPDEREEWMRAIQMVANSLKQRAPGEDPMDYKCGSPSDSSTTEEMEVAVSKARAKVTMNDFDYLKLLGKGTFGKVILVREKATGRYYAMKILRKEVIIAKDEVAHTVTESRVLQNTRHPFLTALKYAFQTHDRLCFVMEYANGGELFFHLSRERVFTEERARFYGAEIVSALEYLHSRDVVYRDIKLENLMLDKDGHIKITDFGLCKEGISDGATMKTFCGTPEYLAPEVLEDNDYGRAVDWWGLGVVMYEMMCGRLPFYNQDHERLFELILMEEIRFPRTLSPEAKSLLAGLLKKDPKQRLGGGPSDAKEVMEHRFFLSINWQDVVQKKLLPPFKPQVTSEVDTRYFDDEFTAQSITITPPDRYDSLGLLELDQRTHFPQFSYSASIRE
Source text: Akt2 inhibitory activity of compounds of the present invention was quantified employing the Akt2 TR-FRET assay as described in the following paragraphs.
His-tagged human recombinant kinase full-length Akt2 expressed in insect cells and activated by PDK1 was purchased form Invitrogen (part number PV 3975). As substrate for the kinase reaction the biotinylated peptide biotin-Ahx-[sequence] (C-terminus in amide form) was used which can be purchased e.g. from the company Biosynthan GmbH (Berlin-Buch, Germany). For the assay 50 nl of a 100 fold concentrated solution of the test compound in DMSO was pipetted into a black low volume 384 well microtiter plate (Greiner Bio-One, Frickenhausen, Germany), 2 μl of a solution of Akt2 in assay buffer [50 mM TRIS/HCl pH 7.5, 5 mM MgCl2, 1 mM dithiothreitol, 0.02% (v/v) Triton X-100 (Sigma)] were added and the mixture was incubated for 15 min at 22° C. to allow pre-binding of the test compounds to the enzyme before the start of the kinase reaction. Then the kinase reaction was started by the addition of 3 μl of a solution of adenosine-tri-phosphate (ATP, 16.7 μM=>final conc. in the 5 μl assay volume is 10 μM) and substrate (1.67 μM=>final conc. in the 5 μl assay volume is 1 μM) in assay buffer and the resulting mixture was incubated for a reaction time of 60 min at 22° C. The concentration of Akt2 in the assay was adjusted depending of the activity of the enzyme lot and was chosen appropriate to have the assay in the linear range, typical enzyme concentrations were in the range of about 0.2 ng/μl (final conc. in the 5 μl assay volume). The reaction was stopped by the addition of 5 μl of a solution of HTRF detection reagents (200 nM streptavidine-XL665 [Cisbio] and 1.5 nM anti-phosho-Serine antibody [Millipore, cat. #35-001] and 0.75 nM LANCE Eu-W 1024 labeled anti-mouse IgG antibody [Perkin Elmer]) in an aqueous EDTA-solution (100 mM EDTA, 0.1% (w/v) bovine serum albumin in 50 mM HEPES/NaOH pH 7.5). The resulting mixture was incubated 1 h at 22° C. to allow the binding of the biotinylated phosphorylated peptide to the streptavidine-XL665 and the antibodies. Subsequently the amount of phosphorylated substrate was evaluated by measurement of the resonance energy transfer from the anti-mouse-IgG-Eu-Chelate to the streptavidine-XL665. Therefore, the fluorescence emissions at 620 nm and 665 nm after excitation at 350 nm was measured in a TR-FRET reader, e.g. a Rubystar (BMG Labtechnologies, Offenburg, Germany) or a Viewlux (Perkin-Elmer). The ratio of the emissions at 665 nm and at 622 nm was taken as the measure for the amount of phosphorylated substrate.

[3] = test system: KPL-4 breast cancer cell line; assay: Tumor cell proliferation assay (CellTiter-Glo), KPL-4; format: cell-based; settings: Homo sapiens, KPL4, 72 h drug exposure, read-out: KLP-4 median IC50
Procedure: (§1) Biological Assay 4.0: Tumor Cell Proliferation Assays
(§2) Compounds were tested in a cell-based assay that measures the capacity of the compounds to inhibit tumour cell proliferation following a 72 h drug exposure. Cell viability is determined using CellTiter-Glow® (CTG, Promega, cat#G7571/2/3). The CellTiter-Glo® Luminescent Cell Viability Assay is a homogeneous method to determine the number of viable cells in culture.
(§3) Detection is based on using the luciferase reaction to measure the amount of ATP from viable cells. The amount of ATP in cells correlates with cell viability. Within minutes after a loss of membrane integrity, cells lose the ability to synthesize ATP, and endogenous ATPases destroy any remaining ATP; thus the levels of ATP fall precipitously.
(§4) For each cell line assayed, cells were plated onto a separate plate for determination of fluorescence at t=0 hour and t=72 hour time points. Following overnight incubation at 37° C., chemiluminescence values for the t=0 samples were determined after adding 10 μl medium and 100 μl CTG solution according to manufacture protocol. Plates for the t=72 hour time points were treated with compounds diluted into growth medium at ten times final concentration added in 10 μL to the cell culture plate. Cells were then incubated for 72 hours at 37° C. Chemiluminescence values for the t=72 hour samples were determined. […] Experiments were controlled using a reference compound as standard.

p-4E-BP1 at T70 = assay: Cellular p-4E-BP1-T70 assay in KPL-4 cells; format: cell-based; settings: Homo sapiens, KPL4; KPL-4 breast tumour cell line, compound treatment 2 hours; read-out: P4EBP1-T70 median IC50
Procedure: The molecular mechanism of action was investigated in a set of experiments to assess the inhibition of the PI3K-AKT-mTOR pathway in responsive cell lines such as KPL-4 breast tumour cell line (PIK3CA^H1047R, HER2^O/E and hormone independent). The phospho-substrates of PI3K-AKT-mTOR axis were used as the read-outs to reflect pathway inhibition. Cells were seeded at 60-80% confluency per well in 96-well cell culture plates. After overnight incubation at 37° C. 5% CO2, cells were treated with compounds and vehicle at 37° C. for 2 hours. […] All measurements where at least done in duplicates and confirmed by independent repetition.

[4] = test system: MCF-7 breast tumour cell line; assay: Tumor cell proliferation assay (CellTiter-Glo), MCF-7; format: cell-based; settings: Homo sapiens, MCF7, 72 h drug exposure, read-out: MCF-7 median IC50
Procedure: as §1, §2, §3, §4

Compound: COc1cc(OC)c2nc(-c3ccc(C4(N)CCC4)cc3)c(-c3ccccc3)n2n1 [Example 9, 1-[4-(6,8-Dimethyloxy-3-phenylimidazo[1,2-b]pyridazin-2-yl)phenyl]-cyclobutanamine]
- pIC50 (phospho-AKT at S473): 7.44
- pIC50 [1]: 8.41
- pIC50 [2]: 7.74
- pIC50 [3]: 6.11
- pIC50 (p-4E-BP1 at T70): 6.16
- pIC50 [4]: 6.47

Compound: COc1cc(C(N)=O)nn2c(-c3ccccc3)c(-c3ccc(C4(N)CCC4)cc3)nc12 [Example 10, 2-[4-(1-Aminocyclobutyl)phenyl]-8-methoxy-3-phenylimidazo[1,2-b]-pyridazine-6-carboxamide]
- pIC50 (phospho-AKT at S473): 8.62
- pIC50 [1]: 8.59
- pIC50 [2]: 8.39
- pIC50 [3]: 7.31
- pIC50 (p-4E-BP1 at T70): 7.55
- pIC50 [4]: 7.41

Compound: COc1ccnn2c(-c3ccccc3)c(-c3ccc(C4(N)CCC4)cc3)nc12 [Example 11, 1-[4-(8-Methoxy-3-phenylimidazo[1,2-b]pyridazin-2-yl)phenyl]cyclobutanamine]
- pIC50 (phospho-AKT at S473): 7.85
- pIC50 [1]: 6.89
- pIC50 [2]: 6.96
- pIC50 [3]: 6.20
- pIC50 (p-4E-BP1 at T70): 6.80
- pIC50 [4]: 6.33

Compound: COc1cc(-c2cccnc2)c2nc(-c3ccc(C4(N)CCC4)cc3)c(-c3ccccc3)n2n1 [Example 14, 1-{4-[6-Methoxy-3-phenyl-8-(pyridin-3-yl)imidazo [1,2-b]pyridazin-2-yl]phenyl}cyclobutanamine]
- pIC50 (phospho-AKT at S473): 6.66
- pIC50 [1]: 8.01
- pIC50 [2]: 7.19
- pIC50 [3]: 5.72
- pIC50 (p-4E-BP1 at T70): 6.49
- pIC50 [4]: 5.74

Compound: CCc1cc(CC)c2nc(-c3ccc(C4(N)CCC4)cc3)c(-c3ccccc3)n2n1 [Example 16, 1-[4-(6,8-Diethyl-3-phenylimidazo[1,2-b]pyridazin-2-yl)phenyl]cyclobutanamine]
- pIC50 (phospho-AKT at S473): 6.28
- pIC50 [1]: 6.80
- pIC50 [2]: 6.80
- pIC50 [3]: 5.70
- pIC50 (p-4E-BP1 at T70): 5.60
- pIC50 [4]: 5.74

Compound: C=Cc1cc(OC)c2nc(-c3ccc(C4(N)CCC4)cc3)c(-c3ccccc3)n2n1 [Example 18, 1-[4-(8-Methoxy-3-phenyl-6-vinylimidazo[1,2-b]pyridazin-2-yl)phenyl]-cyclobutanamine]
- pIC50 (phospho-AKT at S473): 6.74
- pIC50 [1]: 7.07
- pIC50 [2]: 7.28
- pIC50 [3]: 5.80
- pIC50 (p-4E-BP1 at T70): 6.15
- pIC50 [4]: 5.96

Compound: NC1(c2ccc(-c3nc4c(-c5cc[nH]n5)cc(Cl)nn4c3-c3ccccc3)cc2)CCC1 [Example 19, 1-{4-[6-Chloro-3-phenyl-8-(1H-pyrazol-3-yl)imidazo[1,2-b]pyridazin-2-yl]phenyl} cyclobutanamine]
- pIC50 (phospho-AKT at S473): 6.41
- pIC50 [1]: 7.82
- pIC50 [2]: 7.38
- pIC50 [3]: 5.70
- pIC50 (p-4E-BP1 at T70): 5.29
- pIC50 [4]: 5.74

Compound: C=Cc1cc(-c2cc[nH]n2)c2nc(-c3ccc(C4(N)CCC4)cc3)c(-c3ccccc3)n2n1 [Example 20, 1-{4-[3-Phenyl-8-(1H-pyrazol-3-yl)-6-vinylimidazo [1,2-b]pyridazin-2-yl]phenyl}cyclobutanamine]
- pIC50 (phospho-AKT at S473): 6.28
- pIC50 [1]: 6.92
- pIC50 [2]: 6.77
- pIC50 [3]: 5.59
- pIC50 (p-4E-BP1 at T70): 5.82
- pIC50 [4]: 5.74

Compound: CCc1cc(-c2cc[nH]n2)c2nc(-c3ccc(C4(N)CCC4)cc3)c(-c3ccccc3)n2n1 [Example 21, 1-{4-[6-Ethyl-3-phenyl-8-(1H-pyrazol-3-yl)imidazo [1,2-b]pyridazin-2-yl]phenyl}cyclobutanamine]
- pIC50 (phospho-AKT at S473): 6.38
- pIC50 [1]: 7.14
- pIC50 [2]: 6.89
- pIC50 [3]: 5.70
- pIC50 (p-4E-BP1 at T70): 5.77
- pIC50 [4]: 5.74

Compound: Cn1nccc1-c1cc(Cl)nn2c(-c3ccccc3)c(-c3ccc(C4(N)CCC4)cc3)nc12 [Example 23, 1-{4-[6-Chloro-8-(1-methyl-1H-pyrazol-5-yl)-3-phenylimidazo[1,2-b]pyridazin-2-yl]phenyl} cyclobutanamine]
- pIC50 (phospho-AKT at S473): 5.85
- pIC50 [1]: 5.92
- pIC50 [2]: 6.72
- pIC50 [3]: 5.66
- pIC50 (p-4E-BP1 at T70): 5.54
- pIC50 [4]: 5.68

Compound: NC1(c2ccc(-c3nc4cccnn4c3-c3ccccc3)cc2)CCC1 [Example 25, 1-[4-(3-Phenylimidazo[1,2-b]pyridazin-2-yl)phenyl]cyclobutanamine]
- pIC50 (phospho-AKT at S473): 7.05
- pIC50 [1]: 6.72
- pIC50 [2]: 6.80
- pIC50 [3]: 5.70
- pIC50 (p-4E-BP1 at T70): 6.26
- pIC50 [4]: 5.72

Compound: NC1(c2ccc(-c3nc4c(-c5cc[nH]n5)ccnn4c3-c3ccccc3)cc2)CCC1 [Example 27, 1-{4-[3-Phenyl-8-(1H-pyrazol-3-yl)imidazo[1,2-b]pyridazin-2-yl]phenyl}cyclobutanamine]
- pIC50 (phospho-AKT at S473): 7.44
- pIC50 [1]: 7.82
- pIC50 [2]: 7.54
- pIC50 [3]: 5.74
- pIC50 (p-4E-BP1 at T70): 6.32
- pIC50 [4]: 5.74

Compound: NC1(c2ccc(-c3nc4c(OCc5ccccc5)cc(Cl)nn4c3-c3ccccc3)cc2)CCC1 [Example 29, 1-{4-[8-(Benzyloxy)-6-chloro-3-phenylimidazo[1,2-b]pyridazin-2-yl]phenyl}cyclobutanamine]
- pIC50 (phospho-AKT at S473): 6.68
- pIC50 [1]: 7.25
- pIC50 [2]: 7.11
- pIC50 [3]: 5.70
- pIC50 (p-4E-BP1 at T70): 5.89
- pIC50 [4]: 5.77

Compound: CCOc1cc(Cl)nn2c(-c3ccccc3)c(-c3ccc(C4(N)CCC4)cc3)nc12 [Example 30, 1-[4-(6-Chloro-8-ethoxy-3-phenylimidazo[1,2-b]pyridazin-2-yl)phenyl]cyclobutanamine]
- pIC50 (phospho-AKT at S473): 6.40
- pIC50 [1]: 7.29
- pIC50 [2]: 7.24
- pIC50 [3]: 5.22
- pIC50 (p-4E-BP1 at T70): 5.60
- pIC50 [4]: 5.59

Compound: CC(=O)Nc1ccc2nc(-c3ccc(C4(N)CCC4)cc3)c(-c3ccccc3)n2n1 [Example 37, N-{2-[4-(1-Aminocyclobutyl)phenyl]-3-phenylimidazo[1,2-b]pyridazin-6-yl}acetamide]
- pIC50 (phospho-AKT at S473): 7.09
- pIC50 [1]: 6.24
- pIC50 [2]: 6.29
- pIC50 [3]: 5.49
- pIC50 (p-4E-BP1 at T70): 5.60
- pIC50 [4]: 5.70

Compound: COC(=O)c1ccc2nc(-c3ccc(C4(N)CCC4)cc3)c(-c3ccccc3)n2n1 [Example 39, Methyl 2-[4-(1-aminocyclobutyl)phenyl]-3-phenylimidazo[1,2-b]pyridazine-6-carboxylate]
- pIC50 (phospho-AKT at S473): 6.55
- pIC50 [1]: 7.42
- pIC50 [2]: 6.80
- pIC50 [3]: < 5.00
- pIC50 (p-4E-BP1 at T70): 5.12
- pIC50 [4]: 5.21

Compound: NC1(c2ccc(-c3nc4ccc(Br)nn4c3-c3ccccc3)cc2)CCC1 [Example 41, 1-[4-(6-Bromo-3-phenylimidazo[1,2-b]pyridazin-2-yl)phenyl]cyclobutanamine]
- pIC50 (phospho-AKT at S473): < 5.00
- pIC50 [1]: 7.48
- pIC50 [2]: 7.18
- pIC50 [3]: < 5.00
- pIC50 (p-4E-BP1 at T70): < 5.00
- pIC50 [4]: < 5.00

Compound: NC1(c2ccc(-c3nc4c(-c5ccc(F)cc5)cc(-c5ccc(F)cc5)nn4c3-c3ccccc3)cc2)CCC1 [Example 42, 1-{4-[6,8-Bis(4-fluorophenyl)-3-phenylimidazo[1,2-b]pyridazin-2-yl]phenyl}cyclobutanamine]
- pIC50 (phospho-AKT at S473): 6.92
- pIC50 [1]: 4.70
- pIC50 [2]: 4.70
- pIC50 [3]: 5.55
- pIC50 (p-4E-BP1 at T70): 5.59
- pIC50 [4]: 5.38

Compound: CS(=O)(=O)Nc1ccc2nc(-c3ccc(C4(N)CCC4)cc3)c(-c3ccccc3)n2n1 [Example 45, N-{2-[4-(1-Aminocyclobutyl)phenyl]-3-phenylimidazo[1,2-b]pyridazin-6-yl} methanesulfonamide]
- pIC50 (phospho-AKT at S473): < 5.00
- pIC50 [1]: 5.92
- pIC50 [2]: 5.18
- pIC50 [3]: < 5.00
- pIC50 (p-4E-BP1 at T70): < 5.00
- pIC50 [4]: < 5.00

Compound: CC(=O)Nc1ccnn2c(-c3ccccc3)c(-c3ccc(C4(N)CCC4)cc3)nc12 [Example 49, N-{2-[4-(1-Aminocyclobutyl)phenyl]-3-phenylimidazo[1,2-b]pyridazin-8-yl}acetamide]
- pIC50 (phospho-AKT at S473): 8.10
- pIC50 [1]: 7.17
- pIC50 [2]: 6.92
- pIC50 [3]: 6.85
- pIC50 (p-4E-BP1 at T70): 7.39
- pIC50 [4]: 6.21

Compound: Cc1c(Cl)nn2c(-c3ccccc3)c(-c3ccc(C4(N)CCC4)cc3)nc2c1C [Example 50, 1-[4-(6-Chloro-7,8-dimethyl-3-phenylimidazo[1,2-b]pyridazin-2-yl)phenyl]-cyclobutanamine]
- pIC50 (phospho-AKT at S473): 6.35
- pIC50 [1]: 7.36
- pIC50 [2]: 7.57
- pIC50 [3]: 5.77
- pIC50 (p-4E-BP1 at T70): 5.70
- pIC50 [4]: 5.74

Compound: COC(=O)c1nn2c(-c3ccccc3)c(-c3ccc(C4(N)CCC4)cc3)nc2c(C)c1C [Example 51, Methyl 2-[4-(1-aminocyclobutyl)phenyl]-7,8-dimethyl-3-phenylimidazo[1,2-b]pyridazine-6-carboxylate]
- pIC50 (phospho-AKT at S473): 6.23
- pIC50 [1]: 7.38
- pIC50 [2]: 7.09
- pIC50 [3]: 5.15
- pIC50 (p-4E-BP1 at T70): 5.92
- pIC50 [4]: 5.85

Compound: Cc1c(C(N)=O)nn2c(-c3ccccc3)c(-c3ccc(C4(N)CCC4)cc3)nc2c1C [Example 52, 2-[4-(1-Aminocyclobutyl)phenyl]-7,8-dimethyl-3-phenylimidazo[1,2-b]-pyridazine-6-carboxamide]
- pIC50 (phospho-AKT at S473): 8.68
- pIC50 [1]: 7.59
- pIC50 [2]: 7.82
- pIC50 [3]: 6.85
- pIC50 (p-4E-BP1 at T70): 8.00
- pIC50 [4]: 6.96

Compound: COc1nn2c(-c3ccccc3)c(-c3ccc(C4(N)CCC4)cc3)nc2c(C)c1C [Example 53, 1-[4-(6-Methoxy-7,8-dimethyl-3-phenylimidazo[1,2-b]pyridazin-2-yl)phenyl]-cyclobutanamine]
- pIC50 (phospho-AKT at S473): 6.70
- pIC50 [1]: 8.04
- pIC50 [2]: 8.62
- pIC50 [3]: 5.77
- pIC50 (p-4E-BP1 at T70): 6.00
- pIC50 [4]: 6.06
